Assay results taken from patent US9309200B2, “Benzazepine derivatives, pharmaceutical compositions containing them, and their use in therapy” (AbbVie Deutschland GmbH & Co. KG, priority 2011, dated 2016).
Structures can show the parent of a compound that is named as a salt.

Biological target: T1, human GlyT1c transporter (Homo sapiens, UniProt P48067)
T1 construct: expressed in transfected cells; host or cells: recombinant CHO cells (membranes); the uptake assay names the line hGlyT1c_5_CHO
T1 sequence (P48067 1-706): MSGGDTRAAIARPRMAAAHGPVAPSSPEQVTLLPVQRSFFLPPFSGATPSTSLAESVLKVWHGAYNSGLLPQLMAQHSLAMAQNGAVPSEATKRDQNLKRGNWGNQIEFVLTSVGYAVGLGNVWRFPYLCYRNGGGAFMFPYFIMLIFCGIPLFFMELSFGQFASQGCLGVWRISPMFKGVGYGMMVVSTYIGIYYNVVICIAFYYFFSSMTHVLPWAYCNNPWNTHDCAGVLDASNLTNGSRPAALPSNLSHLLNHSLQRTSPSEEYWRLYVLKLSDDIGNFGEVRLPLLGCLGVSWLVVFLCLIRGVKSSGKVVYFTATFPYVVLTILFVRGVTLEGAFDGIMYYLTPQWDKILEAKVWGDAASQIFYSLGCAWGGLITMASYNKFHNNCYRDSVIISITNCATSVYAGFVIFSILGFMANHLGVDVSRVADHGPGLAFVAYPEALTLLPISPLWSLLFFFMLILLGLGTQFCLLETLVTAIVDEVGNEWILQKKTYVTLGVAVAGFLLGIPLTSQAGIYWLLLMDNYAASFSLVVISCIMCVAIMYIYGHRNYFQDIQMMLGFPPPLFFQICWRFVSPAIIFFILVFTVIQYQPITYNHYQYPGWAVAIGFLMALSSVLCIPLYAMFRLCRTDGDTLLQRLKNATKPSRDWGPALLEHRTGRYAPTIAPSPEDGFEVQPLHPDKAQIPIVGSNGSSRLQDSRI
Assay: Radioligand binding assay using recombinant CHO cell membranes expressing human GlyT1
Conditions: read-out: radioligand binding Kiapp
Description: 2. Radioligand Binding Assays Using Recombinant CHO Cell Membranes Expressing Human GlyT1:
Radioligand binding to human GlyT1c transporter-expressing membranes was determined as described in Mezler et al., Molecular Pharmacology 74:1705-1715, 2008.

SMILES | Ki
CCCS(=O)(=O)NCc1ccc2c(c1)C(Cc1ccc(Cl)cc1)NCCC2 (centres unmarked) [Example 14, Propane-1-sulfonic acid [1-(4-chloro-benzyl)-2,3,4,5-tetra-hydro-1H-benzo[c]azepin-8-ylmethyl]-amide] | ≤ 1000 nM
Cn1cc(S(=O)(=O)NCc2ccc3c(c2)C(Cc2ccccc2)NCCC3)cn1 (centres unmarked) [Example 34, 1-Methyl-1H-pyrazole-4-sulfonic acid (1-benzyl-2,3,4,5-tetra-hydro-1H-benzo[c]azepin-8-ylmethyl)-amide] | ≤ 10 nM
CCS(=O)(=O)NCCOc1ccc2c(c1)C(Cc1cccc(F)c1)NCCC2 (centres unmarked) [Example 25, Ethanesulfonic acid {2-[1-(3-fluoro-benzyl)-2,3,4,5-tetrahydro-1H-benzo[c]azepin-8-yloxy]-ethyl}-amide] | ≤ 1000 nM
Cn1cnc(S(=O)(=O)NCCOc2ccc3c(c2)C(Cc2cccc(F)c2)NCCC3)c1 (centres unmarked) [Example 20, 1-Methyl-1H-imidazole-4-sulfonic acid {2-[1-(3-fluoro-benzyl)-2,3,4,5-tetrahydro-1H-benzo[c]azepin-8-yloxy]-ethyl}-amide] | ≤ 10 nM
O=S(=O)(CC1CC1)NCCOc1ccc2c(c1)C(Cc1ccccc1)NCCC2 (centres unmarked) [Example 13, N-{2-[1-Benzyl-2,3,4,5-tetrahydro-1H-benzo[c]azepin-8-yloxy]-ethyl}-C-cyclopropyl-methanesulfonamide] | ≤ 100 nM
COc1ccc2c(c1)C(Cc1ccccc1)NCCC2 (centres unmarked) [Example 1, 1-Benzyl-8-methoxy-2,3,4,5-tetrahydro-1H-benzo[c]azepine] | > 10000 nM
CCS(=O)(=O)NCc1ccc2c(c1)C(Cc1ccccc1)NCCC2 (centres unmarked) [Example 33, Ethanesulfonic acid (1-benzyl-2,3,4,5-tetrahydro-1H-benzo[c]-azepin-8-ylmethyl)-amide] | ≤ 10000 nM
Cn1cnc(S(=O)(=O)NCc2cc3c(cc2F)CCCNC3Cc2ccccc2)c1 (centres unmarked) [Example 41, 1-Methyl-1H-imidazole-4-sulfonic acid (1-benzyl-7-fluoro-2,3,4,5-tetrahydro-1H-benzo[c]azepin-8-ylmethyl)-amide] | ≤ 10 nM
CCCS(=O)(=O)NCCOc1ccc2c(c1)C(Cc1ccc(Cl)cc1)NCCC2 (centres unmarked) [Example 8, Propane-1-sulfonic acid {2-[1-(4-chlorobenzyl)-2,3,4,5-tetrahydro-1H-benzo[c]azepin-8-yloxy]-ethyl}-amide] | ≤ 1000 nM
O=S(=O)(NCc1ccc2c(c1)C(Cc1ccc(Cl)cc1)NCCC2)C1CCC1 (centres unmarked) [Example 17, Cyclobutanesulfonic acid [1-(4-chloro-benzyl)-2,3,4,5-tetra-hydro-1H-benzo[c]azepin-8-ylmethyl]-amide] | ≤ 1000 nM
O=S(=O)(CC1CC1)NCc1ccc2c(c1)C(Cc1ccccc1)NCCC2 (centres unmarked) [Example 30, N-(1-Benzyl-2,3,4,5-tetrahydro-1H-benzo[c]azepin-8-ylmethyl)-C-cyclopropyl-methane-sulfonamide] | ≤ 100 nM
CCS(=O)(=O)NCCOc1ccc2c(c1)C(Cc1ccc(Cl)cc1)NCCC2 (centres unmarked) [Example 9, Ethanesulfonic acid {2-[1-(4-chlorobenzyl)-2,3,4,5-tetrahydro-1H-benzo[c]azepin-8-yloxy]-ethyl}-amide] | ≤ 10000 nM
Cn1cc(S(=O)(=O)NCc2ccc3c(c2)C(Cc2ccc(Cl)cc2)NCCC3)cn1 (centres unmarked) [Example 19, 1-Methyl-1H-pyrazole-4-sulfonic acid [1-(4-chloro-benzyl)-2,3,4,5-tetrahydro-1H-benzo-[c]azepin-8-ylmethyl]-amide] | ≤ 100 nM
Cn1cnc(S(=O)(=O)NCc2ccc3c(c2)C(C(C)(C)c2ccccc2)NCCO3)c1 (centres unmarked) [Example 47, 1-Methyl-1H-imidazole-4-sulfonic acid [5-(1-methyl-1-phenyl-ethyl)-2,3,4,5-tetrahydro-benzo[f][1,4]oxazepin-7-ylmethyl]-amide] | ≤ 10000 nM
CCCS(=O)(=O)NCCOc1ccc2c(c1)C(Cc1cccc(F)c1)NCCC2 (centres unmarked) [Example 23, Propane-1-sulfonic acid {2-[1-(3-fluoro-benzyl)-2,3,4,5-tetrahydro-1H-benzo[c]azepin-8-yloxy]-ethyl}-amide] | ≤ 100 nM
O=S(=O)(CC1CC1)NCCOc1ccc2c(c1)C(Cc1cccc(F)c1)NCCC2 (centres unmarked) [Example 24, C-Cyclopropyl-N-{2-[1-(3-fluoro-benzyl)-2,3,4,5-tetrahydro-1H-benzo[c]azepin-8-yloxy]-ethyl}-methanesulfonamide] | ≤ 100 nM

SMILES | Ki
CN1CCCc2ccc(OCCNS(=O)(=O)c3cn(C)cn3)cc2C1Cc1ccccc1 (centres unmarked) [Example 6, 1-Methyl-1H-imidazole-4-sulfonic acid [2-(1-benzyl-2-methyl-2,3,4,5-tetrahydro-1H-benzo[c]azepin-8-yloxy)-ethyl]-amide] | ≤ 10 nM
CN1CCCc2ccc(CNS(=O)(=O)c3cn(C)cn3)cc2C1Cc1ccccc1 (centres unmarked) [Example 38, 1-Methyl-1H-imidazole-4-sulfonic acid (1-benzyl-2-methyl-2,3,4,5-tetrahydro-1H-benzo[c]azepin-8-ylmethyl)-amide] | ≤ 100 nM
CCS(=O)(=O)NCc1ccc2c(c1)C(Cc1cccc(F)c1)NCCC2 (centres unmarked) [Example 29, Ethanesulfonic acid [1-(3-fluoro-benzyl)-2,3,4,5-tetrahydro-1H-benzo[c]azepin-8-ylmethyl]-amide] | ≤ 1000 nM
Cn1cnc(S(=O)(=O)NCc2ccc3c(c2)C(Cc2ccccc2)NCCC3)c1 (centres unmarked) [Example 35, 1-Methyl-1H-imidazole-4-sulfonic acid (1-benzyl-2,3,4,5-tetra-hydro-1H-benzo[c]azepin-8-ylmethyl)-amide] | ≤ 10 nM
O=S(=O)(NCc1ccc2c(c1)C(Cc1ccccc1)NCCC2)C1CCC1 (centres unmarked) [Example 31, Cyclobutanesulfonic acid (1-benzyl-2,3,4,5-tetrahydro-1H-benzo[c]azepin-8-ylmethyl)-amide] | ≤ 100 nM
Cn1cc(S(=O)(=O)NCCOc2ccc3c(c2)C(Cc2cccc(F)c2)NCCC3)cn1 (centres unmarked) [Example 21, 1-Methyl-1H-pyrazole-4-sulfonic acid {2-[1-(3-fluoro-benzyl)-2,3,4,5-tetrahydro-1H-benzo[c]azepin-8-yloxy]-ethyl}-amide] | ≤ 10 nM
O=S(=O)(CC1CC1)NCc1ccc2c(c1)C(Cc1cccc(F)c1)NCCC2 (centres unmarked) [Example 28, C-Cyclopropyl-N-[1-(3-fluoro-benzyl)-2,3,4,5-tetrahydro-1H-benzo[c]azepin-8-ylmethyl)-methanesulfonamide] | ≤ 100 nM
CCS(=O)(=O)NCCOc1ccc2c(c1)C(Cc1ccccc1)NCCC2 (centres unmarked) [Example 11, Ethanesulfonic acid [2-(1-benzyl-2,3,4,5-tetrahydro-1H-benzo[c]azepin-8-yloxy)-ethyl]-amide] | ≤ 1000 nM
CCN1CCCc2ccc(CNS(=O)(=O)c3cn(C)cn3)cc2C1Cc1ccccc1 (centres unmarked) [Example 39, 1-Methyl-1H-imidazole-4-sulfonic acid (1-benzyl-2-ethyl-2,3,4,5-tetrahydro-1H-benzo[c]azepin-8-ylmethyl)-amide] | ≤ 100 nM
O=S(=O)(CC1CC1)NCCOc1ccc2c(c1)C(Cc1ccc(Cl)cc1)NCCC2 (centres unmarked) [Example 12, N-{2-[1-(4-Chlorobenzyl)-2,3,4,5-tetrahydro-1H-benzo[c]azepin-8-yloxy]-ethyl}-C-cyclopropyl-methanesulfonamide] | ≤ 1000 nM
CCCN1CCCc2ccc(CNS(=O)(=O)c3cn(C)cn3)cc2C1Cc1ccccc1 (centres unmarked) [Example 37, 1-Methyl-1H-imidazole-4-sulfonic acid (1-benzyl-2-propyl-2,3,4,5-tetrahydro-1H-benzo[c]azepin-8-ylmethyl)-amide] | ≤ 10 nM
CN(Cc1ccc2c(c1)C(Cc1ccccc1)NCCC2)S(=O)(=O)c1cn(C)cn1 (centres unmarked) [Example 36, 1-Methyl-1H-imidazole-4-sulfonic acid (1-benzyl-2,3,4,5-tetrahydro-1H-benzo[c]azepin-8-ylmethyl)-methyl-amide] | ≤ 100 nM
Cn1cnc(S(=O)(=O)NCCOc2ccc3c(c2)C(Cc2ccccc2)NCCC3)c1 (centres unmarked) [Example 2, N-(2-(1-Benzyl-2,3,4,5-tetrahydro-1H-benzo[c]azepin-8-yloxy)ethyl)-1-methyl-1H-imidazole-4-sulfonamide] | ≤ 100 nM
COc1ccc2c(c1)C(C1(c3ccc(Cl)cc3)CCC1)NCCO2 (centres unmarked) [Example 5, 5-(1-(4-Chlorophenyl)cyclobutyl)-7-methoxy-2,3,4,5-tetrahydrobenzo[f][1,4]oxazepine hydrochloride] | ≤ 10000 nM
O=S(=O)(CC1CC1)NCc1ccc2c(c1)C(Cc1ccc(Cl)cc1)NCCC2 (centres unmarked) [Example 15, N-[1-(4-Chloro-benzyl)-2,3,4,5-tetrahydro-1H-benzo[c]azepin-8-ylmethyl]-C-cyclopropyl-methanesulfonamide] | ≤ 10000 nM
Cn1cc(S(=O)(=O)NCCOc2ccc3c(c2)C(Cc2ccccc2)NCCC3)cn1 (centres unmarked) [Example 3, N-(2-(1-Benzyl-2,3,4,5-tetrahydro-1H-benzo[c]azepin-8-yloxy)ethyl)-1-methyl-1H-pyrazole-4-sulfonamide] | ≤ 10 nM
